This test deals with IFNγ. Put plainly: IFNγ expression by qPCR and ELISA under Th17 inducing conditions. In kind it is cell-based, mouse. The following applies: SOCS1-KIR peptide (20 μM). The method, then:
FIGS. 5A-5D. […] (FIGS. 5A and 5B) SOCS1^+/+ or SOCS1^+/− CD4^+CD25^− T cells were stimulated with αCD3 antibodies alone or with αCD3+SOCS1-KIR peptide (20 μM) for 72 h. (FIG. 5A) CD25 expressing cells were assessed by flow cytometry. Results are representative of 4 independent experiments. (FIG. 5B) Proliferation was assessed by CFSE labeling and flow cytometry, cell counts, and ^3[H] thymidine incorporation. n=4. (FIGS. 5C and 5D) SOCS1^+/+ or SOCS1^+/− CD4^+CD25^− T cells were placed under Th17 inducing conditions in the absence or presence of SOCS1-KIR peptide (20 μM) (FIG. 5C) IFNγ expression, relative to β-actin., was assessed by qPCR (left) and ELISA (right) (n=4). (FIG. 5D) pSTAT1 and STAT1 protein expressions were assessed by western blotting. Results are representative of 4 independent experiments. Statistical comparisons were performed using Mann-Whitney U test. (*P<0.05). iTh17=Th17 inducing conditions, WT=SOCS1^+/+, and HT=SOCS1^+/−.
CD4^+CD25^− T lymphocytes (1×10^5/well) were cultured in triplicate at 37° C. (5% CO2) in RPMI 1640 (Cellgro 10-040-CV) containing 10% FBS (INVITROGEN™ GIBCO®) 1% antibiotic/antimycotic (Herndon, Va.), and 50 μM β-ME (MP Biomedicals, Solon, Ohio). […] Cells were incubated for 72 hours and assessed for Treg differentiation by ICS for Foxp3. […] Cells were collected after 5 days and assessed for activation and Th17 differentiation. […]

“DTHFRTFRSHSDYRRI (SOCS1-KIR peptide) [SOCS1 mimetic peptide corresponding to the KIR region of SOCS1]”: the “Reduction in IFNγ protein production” value (ELISA) is 2 fold. The “Reduction in IFNγ mRNA expression” value (qPCR relative to β-actin) is listed as 2 fold.
